Data reported in PMC9030622, “Investigation of an Allosteric Deoxyhypusine Synthase Inhibitor in P. falciparum” (Molecules, 2022).

Key:
[1] = target: T1, P. falciparum deoxyhypusine synthase (DHS) (Plasmodium falciparum, UniProt Q9GSW0); test: deoxyhypusine formation assay with purified recombinant PfDHS, GC/MS readout; format: biochemical
T1 construct: recombinant, truncated P. falciparum DHS, N-terminally histidine-tagged
T1 sequence (Q9GSW0 1-496): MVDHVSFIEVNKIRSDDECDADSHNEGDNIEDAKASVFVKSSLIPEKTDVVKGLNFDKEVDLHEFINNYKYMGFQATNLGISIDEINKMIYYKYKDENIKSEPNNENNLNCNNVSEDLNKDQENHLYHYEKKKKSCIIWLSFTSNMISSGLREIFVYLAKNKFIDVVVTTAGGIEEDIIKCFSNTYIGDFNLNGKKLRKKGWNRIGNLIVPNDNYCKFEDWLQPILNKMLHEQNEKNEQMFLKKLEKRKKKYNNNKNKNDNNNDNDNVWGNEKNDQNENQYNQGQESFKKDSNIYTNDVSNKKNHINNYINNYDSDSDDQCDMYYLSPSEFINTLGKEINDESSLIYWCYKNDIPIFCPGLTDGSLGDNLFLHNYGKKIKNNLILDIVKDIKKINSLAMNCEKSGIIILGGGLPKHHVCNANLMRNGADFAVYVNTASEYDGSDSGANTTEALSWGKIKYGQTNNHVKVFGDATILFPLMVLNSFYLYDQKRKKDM

[2] = target: T1, P. falciparum deoxyhypusine synthase (DHS); test: deoxyhypusine formation assay with purified recombinant PfDHS, GC/MS readout; partial (max […]) inhibition; format: biochemical

IC50 [2]	SMILES	IC50 [1]
–	O=C(O)c1cc(O)c2cccc(O)c2n1 [C, 4,8-Dihydroxyquinoline-2-carboxylic acid]	0.112 µM
0.34 µM	O=C(Nc1cccc2[nH]ccc12)c1cc2ccc(Br)cc2s1 [6-bromo-N-(1H-indol-4yl)-1-benzothiophene-2-carboxamide]	–
